# Results: patent US20250122183A1 (Pfizer Inc., priority 2023, published 2025)
# Key:
# Format in all cases: biochemical
# [1] = biological target: KAT6A Full length enzyme (Homo sapiens (Human), UniProt Q92794); assay: KAT6A assay (SAMDI-MS acetylation of H3 1-21 peptide); conditions: Morrison equation fit; replicate number in parentheses; read-out: KAT6A Ki (nM) (replicate number)
# [2] = biological target: KAT7+JADE1+EAF6+ING5 4 protein complex (Homo sapiens (Human), UniProt O95251); assay: KAT7 JADE1 assay (SAMDI-MS acetylation of H3 1-21 peptide); conditions: Morrison equation fit; replicate number in parentheses; read-out: KAT7 JADE1 Ki (nM) (replicate number)
# [3] = biological target: KAT5 Full length enzyme (Homo sapiens (Human), UniProt Q92993); assay: KAT5 assay (SAMDI-MS acetylation of H4 1-21 peptide); conditions: Morrison equation fit; replicate number in parentheses; read-out: KAT5 Ki (nM) (replicate number)
# [4] = biological target: KAT8 Full length enzyme (Homo sapiens (Human), UniProt Q9H7Z6); assay: KAT8 assay (SAMDI-MS acetylation of H3 1-21 peptide); conditions: Morrison equation fit; replicate number in parentheses; read-out: KAT8 Ki (nM) (replicate number)
# KAT8 Full length enzyme, sequence (Q9H7Z6 whole entry): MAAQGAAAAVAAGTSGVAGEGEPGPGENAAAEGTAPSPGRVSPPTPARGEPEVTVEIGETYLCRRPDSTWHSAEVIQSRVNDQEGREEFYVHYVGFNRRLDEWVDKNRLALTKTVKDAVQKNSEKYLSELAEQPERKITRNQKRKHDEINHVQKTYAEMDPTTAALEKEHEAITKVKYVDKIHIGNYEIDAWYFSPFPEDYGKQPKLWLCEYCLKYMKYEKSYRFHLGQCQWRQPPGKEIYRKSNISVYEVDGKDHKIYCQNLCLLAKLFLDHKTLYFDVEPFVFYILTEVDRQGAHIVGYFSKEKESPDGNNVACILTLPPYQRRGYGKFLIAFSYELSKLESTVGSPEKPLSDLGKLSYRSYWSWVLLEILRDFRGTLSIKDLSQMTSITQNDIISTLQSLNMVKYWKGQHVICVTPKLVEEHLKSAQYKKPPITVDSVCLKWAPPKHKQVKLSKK
# KAT5 Full length enzyme, sequence (Q92993 whole entry): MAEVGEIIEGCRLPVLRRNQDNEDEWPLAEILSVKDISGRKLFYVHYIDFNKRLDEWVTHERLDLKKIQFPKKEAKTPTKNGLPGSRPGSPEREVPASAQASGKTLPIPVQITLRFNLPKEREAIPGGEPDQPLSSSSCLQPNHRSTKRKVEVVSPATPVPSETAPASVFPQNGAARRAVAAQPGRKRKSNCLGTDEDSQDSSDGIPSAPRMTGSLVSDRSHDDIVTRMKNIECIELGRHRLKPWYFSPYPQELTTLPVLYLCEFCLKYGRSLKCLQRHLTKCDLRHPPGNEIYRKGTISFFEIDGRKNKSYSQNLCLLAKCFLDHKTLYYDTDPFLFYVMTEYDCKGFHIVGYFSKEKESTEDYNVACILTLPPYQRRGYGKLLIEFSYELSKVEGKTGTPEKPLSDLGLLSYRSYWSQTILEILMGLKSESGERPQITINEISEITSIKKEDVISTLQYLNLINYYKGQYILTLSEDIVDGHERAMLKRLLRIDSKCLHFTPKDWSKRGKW
# KAT6A Full length enzyme, sequence (Q92794 other isoform, or with tags, fused parts or gaps): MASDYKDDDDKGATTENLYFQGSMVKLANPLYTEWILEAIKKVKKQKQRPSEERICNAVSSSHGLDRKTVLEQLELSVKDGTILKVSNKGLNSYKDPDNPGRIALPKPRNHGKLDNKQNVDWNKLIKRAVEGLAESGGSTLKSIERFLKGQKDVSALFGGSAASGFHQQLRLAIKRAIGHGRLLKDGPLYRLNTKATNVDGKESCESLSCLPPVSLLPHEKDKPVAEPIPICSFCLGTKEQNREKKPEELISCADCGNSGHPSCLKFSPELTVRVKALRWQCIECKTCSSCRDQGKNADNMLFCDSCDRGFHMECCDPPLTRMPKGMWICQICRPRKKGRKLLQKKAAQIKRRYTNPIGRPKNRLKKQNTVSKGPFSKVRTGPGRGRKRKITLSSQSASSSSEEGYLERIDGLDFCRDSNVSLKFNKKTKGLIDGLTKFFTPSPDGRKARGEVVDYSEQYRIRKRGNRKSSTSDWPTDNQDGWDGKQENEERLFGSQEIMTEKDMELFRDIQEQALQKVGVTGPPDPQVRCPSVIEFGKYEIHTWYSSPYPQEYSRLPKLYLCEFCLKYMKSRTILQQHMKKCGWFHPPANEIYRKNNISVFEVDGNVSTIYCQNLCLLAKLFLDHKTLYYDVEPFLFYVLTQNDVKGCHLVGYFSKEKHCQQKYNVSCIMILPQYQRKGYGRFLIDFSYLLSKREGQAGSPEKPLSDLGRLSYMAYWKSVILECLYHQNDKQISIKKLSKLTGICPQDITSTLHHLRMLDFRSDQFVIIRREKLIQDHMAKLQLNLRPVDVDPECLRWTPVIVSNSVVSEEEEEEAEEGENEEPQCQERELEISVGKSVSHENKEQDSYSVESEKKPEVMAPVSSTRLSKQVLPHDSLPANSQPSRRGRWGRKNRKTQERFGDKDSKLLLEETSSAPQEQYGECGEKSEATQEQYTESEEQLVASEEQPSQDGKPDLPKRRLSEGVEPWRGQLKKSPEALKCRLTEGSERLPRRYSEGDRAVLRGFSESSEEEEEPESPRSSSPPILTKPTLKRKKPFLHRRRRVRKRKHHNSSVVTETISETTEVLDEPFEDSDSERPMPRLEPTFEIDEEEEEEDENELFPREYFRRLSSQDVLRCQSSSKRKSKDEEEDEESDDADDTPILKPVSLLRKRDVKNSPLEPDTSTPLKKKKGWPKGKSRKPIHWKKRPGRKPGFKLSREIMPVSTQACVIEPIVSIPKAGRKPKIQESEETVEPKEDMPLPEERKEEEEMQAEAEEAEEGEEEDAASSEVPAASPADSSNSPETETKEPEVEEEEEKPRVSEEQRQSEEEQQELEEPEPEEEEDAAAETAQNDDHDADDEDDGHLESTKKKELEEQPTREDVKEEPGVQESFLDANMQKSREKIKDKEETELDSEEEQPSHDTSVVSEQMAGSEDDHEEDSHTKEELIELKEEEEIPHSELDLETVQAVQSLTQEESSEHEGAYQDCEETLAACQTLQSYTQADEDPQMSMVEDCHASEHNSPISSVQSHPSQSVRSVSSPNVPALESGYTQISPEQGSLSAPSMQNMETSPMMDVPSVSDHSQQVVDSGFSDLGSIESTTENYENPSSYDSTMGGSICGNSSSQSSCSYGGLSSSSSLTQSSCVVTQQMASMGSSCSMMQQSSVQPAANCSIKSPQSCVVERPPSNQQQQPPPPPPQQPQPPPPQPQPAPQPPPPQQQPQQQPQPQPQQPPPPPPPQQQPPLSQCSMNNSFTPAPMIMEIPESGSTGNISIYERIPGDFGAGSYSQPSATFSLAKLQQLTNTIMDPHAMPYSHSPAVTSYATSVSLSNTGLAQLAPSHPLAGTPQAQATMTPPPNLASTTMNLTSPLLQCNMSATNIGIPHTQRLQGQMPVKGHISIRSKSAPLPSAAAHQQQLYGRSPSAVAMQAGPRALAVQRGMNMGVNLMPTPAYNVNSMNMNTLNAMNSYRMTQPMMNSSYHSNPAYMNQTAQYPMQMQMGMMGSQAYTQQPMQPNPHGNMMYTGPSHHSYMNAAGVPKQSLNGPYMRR
SMILES,Ki [1],Ki [2],Ki [3],Ki [4]
"COc1cccc(F)c1S(=O)(=O)Nc1noc2cc(Nc3cc(C4CC4)n[nH]3)c(F)c(OC)c12 [Example 81, N-{6-[(3-cyclopropyl-1H-pyrazol-5-yl)amino]-5-fluoro-4-methoxy-1,2-benzoxazol-3-yl}-2-fluoro-6-methoxybenzene-1-sulfonamide]",3.5 nM,31.6 nM,336 nM,> 13000 nM
"COc1cc2c(NS(=O)(=O)c3c(OC)cccc3OC)noc2cc1Nc1cc(C2CCCC2)n[nH]1 [Example 85, N-{6-[(3-cyclopentyl-1H-pyrazol-5-yl)amino]-5-methoxy-1,2-benzoxazol-3-yl}-2,6-dimethoxybenzene-1-sulfonamide]",4.7 nM,33.4 nM,225 nM,3380 nM
"COc1cc2c(NS(=O)(=O)c3c(OC)cccc3OC)noc2cc1Nc1cc(C(C)CCO)[nH]n1 (stereo not shown) [Example 88, N-(6-{[5-(4-hydroxybutan-2-yl)-1H-pyrazol-3-yl]amino}-5-methoxy-1,2-benzoxazol-3-yl)-2,6-dimethoxybenzene-1-sulfonamide]",27 nM,378 nM,6020 nM,> 13000 nM
"COc1cc2c(NS(=O)(=O)c3c(OC)cccc3OC)noc2cc1Nc1cc(Cl)n[nH]1 [Example 92, N-{6-[(3-chloro-1H-pyrazol-5-yl)amino]-5-methoxy-1,2-benzoxazol-3-yl}-2,6-dimethoxybenzene-1-sulfonamide]",1.3 nM,219 nM,867 nM,2100 nM
"COc1cc2c(NS(=O)(=O)c3c(OC)cccc3OC)noc2cc1Nc1cc(C2(C)CC2)n[nH]1 [Example 94, 2,6-dimethoxy-N-(5-methoxy-6-{[3-(1-methylcyclopropyl)-1H-pyrazol-5-yl]amino}-1,2-benzoxazol-3-yl)benzene-1-sulfonamide]",6.3 nM,58.1 nM,193 nM,5740 nM
"COc1cc2c(NS(=O)(=O)c3cc4ccccc4cc3OC)noc2cc1Nc1cc(C2CC2)n[nH]1 [Example 95, N-{6-[(3-cyclopropyl-1H-pyrazol-5-yl)amino]-5-methoxy-1,2-benzoxazol-3-yl}-3-methoxynaphthalene-2-sulfonamide]",0.1 nM,0.3 nM,18.1 nM,77 nM
"COc1cc(F)ccc1S(=O)(=O)Nc1noc2cc(Nc3cc(C4CC4)n[nH]3)c(F)c(OC)c12 [Example 97, N-{6-[(3-cyclopropyl-1H-pyrazol-5-yl)amino]-5-fluoro-4-methoxy-1,2-benzoxazol-3-yl}-4-fluoro-2-methoxybenzene-1-sulfonamide]",9.8 nM,57.7 nM,795 nM,> 13000 nM
"COc1cccc(OC2CCC2)c1S(=O)(=O)Nc1noc2cc(Nc3cc(C4CC4)n[nH]3)c(F)c(OC)c12 [Example 98, 2-(cyclobutyloxy)-N-{6-[(3-cyclopropyl-1H-pyrazol-5-yl)amino]-5-fluoro-4-methoxy-1,2-benzoxazol-3-yl}-6-methoxybenzene-1-sulfonamide]",5.7 nM,74.6 nM,3790 nM,> 13000 nM
"COc1cc(F)c(F)cc1S(=O)(=O)Nc1noc2cc(Nc3cc(C4CC4)n[nH]3)c(F)c(OC)c12 [Example 100, N-{6-[(3-cyclopropyl-1H-pyrazol-5-yl)amino]-5-fluoro-4-methoxy-1,2-benzoxazol-3-yl}-4,5-difluoro-2-methoxybenzene-1-sulfonamide]",21.4 nM,86.6 nM,1060 nM,> 13000 nM
"CCOc1cc(C(F)F)ccc1S(=O)(=O)Nc1noc2cc(Nc3cc(C4CC4)n[nH]3)c(F)c(OC)c12 [Example 101, N-{6-[(3-cyclopropyl-1H-pyrazol-5-yl)amino]-5-fluoro-4-methoxy-1,2-benzoxazol-3-yl}-4-(difluoromethyl)-2-ethoxybenzene-1-sulfonamide]",5.3 nM,50.7 nM,1230 nM,10300 nM
"COc1cc2c(NS(=O)(=O)c3c(OC)cccc3OC)noc2cc1Nc1ncccn1 [Example 102, 2,6-dimethoxy-N-{5-methoxy-6-[(pyrimidin-2-yl)amino]-1,2-benzoxazol-3-yl}benzene-1-sulfonamide]",1.9 nM,1440 nM,5970 nM,> 19500 nM
"COc1cc2c(NS(=O)(=O)c3c(OC)cccc3OC)noc2cc1Nc1cc(C2CC2)n(C)n1 [Example 103, N-{6-[(5-cyclopropyl-1-methyl-1H-pyrazol-3-yl)amino]-5-methoxy-1,2-benzoxazol-3-yl}-2,6-dimethoxybenzene-1-sulfonamide]",2.8 nM,47.4 nM,254 nM,6010 nM
"COc1cc2c(NS(=O)(=O)c3c(OC)cccc3OC)noc2cc1Nc1cc(OC)n(C)n1 [Example 104, 2,6-dimethoxy-N-{5-methoxy-6-[(5-methoxy-1-methyl-1H-pyrazol-3-yl)amino]-1,2-benzoxazol-3-yl}benzene-1-sulfonamide]",5.6 nM,139 nM,1040 nM,> 10900 nM
"COc1cc2c(NS(=O)(=O)c3c(OC)cccc3OC)noc2cc1Nc1nccc(C)n1 [Example 105, 2,6-dimethoxy-N-{5-methoxy-6-[(4-methylpyrimidin-2-yl)amino]-1,2-benzoxazol-3-yl}benzene-1-sulfonamide]",9.7 nM,414 nM,4120 nM,> 12700 nM
"CCc1ccnc(Nc2cc3onc(NS(=O)(=O)c4c(OC)cccc4OC)c3cc2OC)n1 [Example 106, N-{6-[(4-ethylpyrimidin-2-yl)amino]-5-methoxy-1,2-benzoxazol-3-yl}-2,6-dimethoxybenzene-1-sulfonamide]",11.7 nM,410 nM,1990 nM,6430 nM
"CCc1cnc(Nc2cc3onc(NS(=O)(=O)c4c(OC)cccc4OC)c3cc2OC)nc1 [Example 107, N-{6-[(5-ethylpyrimidin-2-yl)amino]-5-methoxy-1,2-benzoxazol-3-yl}-2,6-dimethoxybenzene-1-sulfonamide]",132 nM,6540 nM,10400 nM,> 13000 nM
"COc1cc2c(NS(=O)(=O)c3c(OC)cccc3OC)noc2cc1Nc1nc(C)cc(C)n1 [Example 108, N-{6-[(4,6-dimethylpyrimidin-2-yl)amino]-5-methoxy-1,2-benzoxazol-3-yl}-2,6-dimethoxybenzene-1-sulfonamide]",202 nM,3420 nM,45000 nM,> 13000 nM
"COc1cc2c(NS(=O)(=O)c3c(OC)cccc3OC)noc2cc1Nc1ncc(C)cn1 [Example 110, 2,6-dimethoxy-N-{5-methoxy-6-[(5-methylpyrimidin-2-yl)amino]-1,2-benzoxazol-3-yl}benzene-1-sulfonamide]",44.1 nM,2820 nM,6610 nM,> 13000 nM
"COc1cc2c(NS(=O)(=O)c3c(OC)cccc3OC)noc2cc1Nc1ccccn1 [Example 111, 2,6-dimethoxy-N-{5-methoxy-6-[(pyridin-2-yl)amino]-1,2-benzoxazol-3-yl}benzene-1-sulfonamide]",0.8 nM,400 nM,1130 nM,> 13000 nM
